Results: patent publication US9328083B2, “2-aminated methylene or 2-esterified methylene tanshinone derivatives, and preparation method and application thereof” (HANGZHOU BENSHENG PHARMACEUTICAL CO., LTD., priority 2011, dated 2016)
Values after ≈ are worked out from the molar mass of the structure shown. Values belong to the molecule of their own block, whether it stands above or below them.

Legend:
[1] = test system: Kasumi-1 (acute myeloid leukemia M2 type, AML-M2); assay: MTT growth inhibition of leukemia cells, 72 h; type: cell-based, human; conditions: Homo sapiens, Kasumi-1, 72 h; for IC50: read-out: IC50; for IC90: read-out: IC90
Outline: (§1)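 Leukemia cells were seeded at 6000 per well in RPMI-1640 with 10% fetal bovine serum. Tanshinone I derivatives, from 10 mg/mL DMSO stocks diluted in medium, were added at various concentrations on the following day. After 72 h at 37 °C under 5% CO2, viable cells were measured by MTT.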

[2] = test system: K562/adr (drug-resistant, chronic myeloid leukemia, CML); assay: MTT growth inhibition of leukemia cells, 72 h; type: cell-based, human; conditions: Homo sapiens, K562/Adr; for IC50: read-out: IC50; for IC90: read-out: IC90
Outline: as §1

[3] = test system: H9 (acute lymphoblastic leukemia, ALL); assay: MTT growth inhibition of leukemia cells, 72 h; type: cell-based, human; conditions: Homo sapiens, H9, 72 h; for IC50: read-out: IC50; for IC90: read-out: IC90
Outline: as §1

[4] = test system: Jurkat (acute lymphoblastic leukemia, ALL); assay: MTT growth inhibition of leukemia cells, 72 h; type: cell-based, human; conditions: for IC50 / IC90: Homo sapiens, 72 h; for IC50: read-out: IC50; for IC90: read-out: IC90
Outline: as §1

[5] = test system: NB4 (acute promyelocytic leukemia, AML); assay: MTT growth inhibition of leukemia cells, 72 h; type: cell-based, human; conditions: Homo sapiens, NB4, 72 h; for IC50: read-out: IC50; for IC90: read-out: IC90
Outline: as §1

[6] = test system: RPMI8226 (multiple myeloma); assay: MTT growth inhibition of multiple myeloma cells, 72 h; type: cell-based, human; conditions: Homo sapiens, RPMI 8226, 72 h; for IC50: read-out: IC50; for IC90: read-out: IC90
Outline: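 RPMI8226 myeloma cells, 6000 per well in 1640 medium with 10% FBS, exposed to compounds at a range of concentrations (diluted from 10 mg/mL DMSO stock) for 72 h at 37° C, 5% CO2. Viable cells then determined by MTT.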

[7] = test system: Hep-2 (laryngeal carcinoma); assay: MTT growth inhibition of human solid tumor cells, 72 h; type: cell-based; conditions: Homo sapiens, HEp-2, 72 h; for IC50: read-out: IC50; for IC90: read-out: IC90
Outline: (§2)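 Viable cell concentration serves as the endpoint. Compounds were dissolved in DMSO at 10 mg/mL (stock) and brought to working concentrations in medium; cells, 4000 per well, had been cultured a day beforehand at 37° C.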

PC-3 (prostate cancer) = assay: as above; type: cell-based; conditions: Homo sapiens, PC-3, 72 h; for IC50: read-out: IC50; for IC90: read-out: IC90
Outline: as §2

[8] = test system: Hep G2 (human liver cancer cell); assay: as above; type: cell-based; conditions: Homo sapiens, HepG2, Hep G2, 72 h; for IC50: read-out: IC50; for IC90: read-out: IC90
Outline: as §2

[9] = test system: Hela (human cervical cancer cell); assay: as above; type: cell-based; conditions: Homo sapiens, HeLa, 72 h; for IC50: read-out: IC50; for IC90: read-out: IC90
Outline: as §2

[10] = test system: MGC 803 (human gastric cancer cell); assay: as above; type: cell-based; conditions: Homo sapiens, MGC-803, 72 h; for IC50: read-out: IC50; for IC90: read-out: IC90
Outline: as §2

[11] = test system: RKO (human colon adenocarcinoma cell); assay: as above; type: cell-based; conditions: Homo sapiens; for IC50: read-out: IC50; for IC90: read-out: IC90
Outline: as §2

[12] = test system: U87 MG (malignant glioma cell); assay: as above; type: cell-based; conditions: Homo sapiens, U-87 MG, U87-MG, 72 h; for IC50: read-out: IC50; for IC90: read-out: IC90
Outline: as §2

A549 (human lung cancer) = assay: as above; type: cell-based; conditions: Homo sapiens, A549, 72 h; for IC50: read-out: IC50; for IC90: read-out: IC90
Outline: as §2

[13] = test system: PANC-1 (pancreatic cancer); assay: as above; type: cell-based; conditions: for IC50 / IC90: Homo sapiens, PANC-1, 72 h; for IC50: read-out: IC50; for IC90: read-out: IC90
Outline: as §2

[14] = test system: Becap37 (human breast cancer cell); assay: as above; type: cell-based; conditions: Homo sapiens, Becap-37, 72 h; for IC50: read-out: IC50; for IC90: read-out: IC90
Outline: as §2

[15] = test system: CNE (nasopharyngeal carcinoma cell); assay: as above; type: cell-based; conditions: Homo sapiens; for IC50: read-out: IC50; for IC90: read-out: IC90
Outline: as §2

[16] = test system: SK-OV-3 (ovarian cancer cell); assay: as above; type: cell-based; conditions: Homo sapiens, SK-OV-3, 72 h; for IC50: read-out: IC50; for IC90: read-out: IC90
Outline: as §2

MG63 (osteosarcoma) = assay: as above; type: cell-based; conditions: Homo sapiens, MG-63, 72 h; for IC50: read-out: IC50; for IC90: read-out: IC90
Outline: as §2

[17] = test system: CaES-17 (esophageal cancer cell); assay: as above; type: cell-based; conditions: for IC50 / IC90: Homo sapiens, CaEs17, CaEs-17, 72 h; for IC50: read-out: IC50; for IC90: read-out: IC90
Outline: as §2

IC50 [1]: 0.12 µg/mL (≈ 0.33 µM)
IC90 [1]: 0.23 µg/mL (≈ 0.633 µM)
IC50 [2]: 0.31 µg/mL (≈ 0.853 µM)
IC90 [2]: 0.86 µg/mL (≈ 2.37 µM)
IC50 [3]: 0.45 µg/mL (≈ 1.24 µM)
IC90 [3]: 0.96 µg/mL (≈ 2.64 µM)
IC50 [4]: 0.16 µg/mL (≈ 0.44 µM)
IC90 [4]: 0.36 µg/mL (≈ 0.991 µM)
IC50 [5]: 0.14 µg/mL (≈ 0.385 µM)
IC90 [5]: 0.41 µg/mL (≈ 1.13 µM)
IC50 [6]: 0.39 µg/mL (≈ 1.07 µM)
IC90 [6]: 0.8 µg/mL (≈ 2.2 µM)
IC50 [7]: 0.87 µg/mL (≈ 2.39 µM)
IC90 [7]: 2.79 µg/mL (≈ 7.68 µM)
IC50 (PC-3 (prostate cancer)): 0.63 µg/mL (≈ 1.73 µM)
IC90 (PC-3 (prostate cancer)): 2 µg/mL (≈ 5.5 µM)
IC50 [8]: 0.56 µg/mL (≈ 1.54 µM)
IC90 [8]: 1.82 µg/mL (≈ 5.01 µM)
IC50 [9]: 0.67 µg/mL (≈ 1.84 µM)
IC90 [9]: 1.8 µg/mL (≈ 4.95 µM)
IC50 [10]: 0.37 µg/mL (≈ 1.02 µM)
IC90 [10]: 2.94 µg/mL (≈ 8.09 µM)
IC50 [11]: 0.125 µg/mL (≈ 0.344 µM)
IC90 [11]: 1.3 µg/mL (≈ 3.58 µM)
IC50 [12]: 0.76 µg/mL (≈ 2.09 µM)
IC90 [12]: 1.82 µg/mL (≈ 5.01 µM)
IC50 (A549 (human lung cancer)): 0.83 µg/mL (≈ 2.28 µM)
IC90 (A549 (human lung cancer)): 3.13 µg/mL (≈ 8.61 µM)
IC50 [13]: 0.27 µg/mL (≈ 0.743 µM)
IC90 [13]: 2.6 µg/mL (≈ 7.15 µM)
IC50 [14]: 0.76 µg/mL (≈ 2.09 µM)
IC90 [14]: 1.77 µg/mL (≈ 4.87 µM)
IC50 [15]: 1.4 µg/mL (≈ 3.85 µM)
IC90 [15]: 3 µg/mL (≈ 8.26 µM)
IC50 [16]: 1.44 µg/mL (≈ 3.96 µM)
IC90 [16]: 1.97 µg/mL (≈ 5.42 µM)
IC50 (MG63 (osteosarcoma)): 0.78 µg/mL (≈ 2.15 µM)
IC90 (MG63 (osteosarcoma)): 1.76 µg/mL (≈ 4.84 µM)
IC50 [17]: 0.45 µg/mL (≈ 1.24 µM)
IC90 [17]: 0.91 µg/mL (≈ 2.5 µM)
SMILES: Cc1c(CN(C)CCO)oc2c1C(=O)C(=O)c1c-2ccc2c(C)cccc12 [BS-TA-B17]
improvement of anti-Jurkat activity as compared with tanshinone I ([4]; vs tanshinone I): more than 10 fold
improvement of anti-PANC-1 activity as compared with tanshinone I ([13]; PANC-1, vs tanshinone I): more than 10 fold
improvement of anti-CaES-17 activity as compared with tanshinone I ([17]; CaES-17, vs tanshinone I): more than 7 fold

IC50 [1]: 0.83 µg/mL (≈ 2.42 µM)
IC90 [1]: 1.8 µg/mL (≈ 5.24 µM)
IC50 [2]: 1.3 µg/mL (≈ 3.79 µM)
IC90 [2]: 2.73 µg/mL (≈ 7.95 µM)
IC50 [3]: 2.2 µg/mL (≈ 6.41 µM)
IC90 [3]: 5.9 µg/mL (≈ 17.2 µM)
IC50 [4]: 3.41 µg/mL (≈ 9.93 µM)
IC90 [4]: 9.55 µg/mL (≈ 27.8 µM)
IC50 [5]: 1.53 µg/mL (≈ 4.46 µM)
IC90 [5]: 5.46 µg/mL (≈ 15.9 µM)
IC50 [6]: 5.78 µg/mL (≈ 16.8 µM)
IC90 [6]: 10.5 µg/mL (≈ 30.5 µM)
IC50 [7]: 5.16 µg/mL (≈ 15 µM)
IC90 [7]: 23.7 µg/mL (≈ 69 µM)
IC50 (PC-3 (prostate cancer)): 7.3 µg/mL (≈ 21.3 µM)
IC90 (PC-3 (prostate cancer)): 15.1 µg/mL (≈ 44 µM)
IC50 [8]: 7.3 µg/mL (≈ 21.3 µM)
IC90 [8]: 25.8 µg/mL (≈ 75 µM)
IC50 [9]: 3.3 µg/mL (≈ 9.61 µM)
IC90 [9]: 7.9 µg/mL (≈ 23 µM)
IC50 [10]: 7.01 µg/mL (≈ 20.4 µM)
IC90 [10]: 17.3 µg/mL (≈ 50.4 µM)
IC50 [11]: 2.46 µg/mL (≈ 7.16 µM)
IC90 [11]: 27.9 µg/mL (≈ 81.1 µM)
IC50 [12]: 6.79 µg/mL (≈ 19.8 µM)
IC90 [12]: 21.3 µg/mL (≈ 62.1 µM)
IC50 (A549 (human lung cancer)): 1.8 µg/mL (≈ 5.24 µM)
IC90 (A549 (human lung cancer)): 10 µg/mL (≈ 29.1 µM)
IC50 [13]: 1.14 µg/mL (≈ 3.32 µM)
IC90 [13]: 7.28 µg/mL (≈ 21.2 µM)
IC50 [14]: 6.73 µg/mL (≈ 19.6 µM)
IC90 [14]: 15.1 µg/mL (≈ 43.9 µM)
IC50 [15]: 5.99 µg/mL (≈ 17.4 µM)
IC90 [15]: 79 µg/mL (≈ 230 µM)
IC50 [16]: > 16 µg/mL
IC90 [16]: > 16 µg/mL
IC50 (MG63 (osteosarcoma)): 4.68 µg/mL (≈ 13.6 µM)
IC90 (MG63 (osteosarcoma)): 15.3 µg/mL (≈ 44.6 µM)
IC50 [17]: 8.71 µg/mL (≈ 25.4 µM)
IC90 [17]: 14.2 µg/mL (≈ 41.5 µM)
SMILES: C#CCNCc1oc2c(c1C)C(=O)C(=O)c1c-2ccc2c(C)cccc12 [BS-TA-B21]
